From ChEMBL document CHEMBL5214884, “Recent research progress of Uncaria spp. based on alkaloids: phytochemistry, pharmacology and structural chemistry” (Eur J Med Chem, 2021)
Values belong to the compound of their own block, whether it stands above or below them.

What was measured:
RAW264.7 = experiment: Inhibition of LPS-induced NO release in mouse RAW264.7 cells preincubated for 2 hrs followed by LPS addition measured after 24 hrs; type: functional, cell-based
Mus musculus [1] = species: Mus musculus; experiment: Antiinflammatory activity against Balb/c mouse serum assessed as inhibition of IL-1alpha release measured after 2 hrs by cytokine Elisa multiplex Q-plex system method relative to control; type: functional; set-up: scale not given: the % may be the effect or the level left
Mus musculus [2] = species: Mus musculus; experiment: Antiinflammatory activity against Balb/c mouse serum assessed as inhibition of IL-1beta release measured after 2 hrs by cytokine Elisa multiplex Q-plex system method relative to control; type: functional; set-up: scale not given: the % may be the effect or the level left
Mus musculus [3] = species: Mus musculus; experiment: Antiinflammatory activity against Balb/c mouse serum assessed as inhibition of IL-17 release measured after 2 hrs by cytokine Elisa multiplex Q-plex system method relative to control; type: functional; set-up: scale not given: the % may be the effect or the level left
Mus musculus [4] = species: Mus musculus; experiment: Antiinflammatory activity against Balb/c mouse serum assessed as inhibition of TNF-alpha release measured after 2 hrs by cytokine Elisa multiplex Q-plex system method relative to control; type: functional; set-up: scale not given: the % may be the effect or the level left
Mus musculus [5] = species: Mus musculus; experiment: Antiinflammatory activity against Balb/c mouse serum assessed as reduction of IL-4 release measured after 2 hrs by cytokine Elisa multiplex Q-plex system method relative to control; type: functional; set-up: scale not given: the % may be the effect or the level left
[6] = Inhibition of human carboxylesterase using 4-benzoyl-N-butyl-1,8-naphthalimide as substrate by fluorescence based assay
Rattus norvegicus = experiment: Hypotensive effect against Phe-induced contraction in rat mesentric arteries assessed as relaxation effect […]; type: functional
[7] = Inhibition of LPS-induced NO release in mouse N9 microglial cells measured after 48 hrs by Griess reaction assay; type: functional, cell-based; conditions: N9, 48 h
[8] = Inhibition of alpha glucosidase (unknown origin) using p-nitrophenyl-a-D-glucopyranoside as substrate incubated for 20 mins by UV based microplate reading method; set-up: species or system Homo sapiens
[9] = Inhibition of alpha glucosidase (unknown origin) using p-nitrophenyl alpha-D-glucoside as substrate preincubated for 60 mins followed by substrate addition measured after 30 mins by spectrophotometric analysis; set-up: species or system Homo sapiens
Acetylcholinesterase [10] = target: T1, Acetylcholinesterase (Homo sapiens, UniProt P22303); experiment: Inhibition of AChE (unknown origin) using acetylcholine as substrate by BioTek Synergy HT microplate reader method
PC-12 [11] = experiment: Neuroprotective activity against mNGF-differentiated rat PC-12 cells assessed as inhibition of caspase 3; type: functional, cell-based
PC-12 [12] = experiment: Neuroprotective activity against mNGF-differentiated rat PC-12 cells assessed as inhibition of caspase 9; type: functional, cell-based
[13] = target: T2, Melatonin receptor type 1A (Homo sapiens, UniProt P48039); experiment: Agonist activity at human MT1R stably expressed in HEK293 cells at 1 mM by FlexStation3 Bench-top MultiMode Microplate Reader relative to control; type: functional, cell-based; conditions: filed as agonist
[14] = target: T3, Melatonin receptor type 1B (Homo sapiens) (UniProt P49286); experiment: Agonist activity at human MT2R stably expressed in HEK293 cells at 1 mM by FlexStation3 Bench-top MultiMode Microplate Reader relative to control; type: functional, cell-based; conditions: filed as agonist
T3 sequence (whole entry): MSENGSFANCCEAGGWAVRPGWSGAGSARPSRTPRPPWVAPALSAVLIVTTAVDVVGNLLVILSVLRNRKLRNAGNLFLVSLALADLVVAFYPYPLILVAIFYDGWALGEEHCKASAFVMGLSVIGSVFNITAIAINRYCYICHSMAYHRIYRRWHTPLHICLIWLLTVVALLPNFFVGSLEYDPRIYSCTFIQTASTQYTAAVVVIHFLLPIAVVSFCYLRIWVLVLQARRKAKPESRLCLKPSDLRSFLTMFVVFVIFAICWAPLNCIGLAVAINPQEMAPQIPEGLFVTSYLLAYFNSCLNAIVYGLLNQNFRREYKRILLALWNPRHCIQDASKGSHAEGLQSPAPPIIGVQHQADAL

Acetylcholinesterase [15] = target: T1, Acetylcholinesterase; experiment: Inhibition of AChE (unknown origin) incubated for 20 mins by Ellman's method
[16] = target: T2, Melatonin receptor type 1A; experiment: Agonist activity at human MT1R stably expressed in HEK293 cells by FlexStation3 Bench-top MultiMode Microplate Reader; type: functional, cell-based
[17] = target: T4, Melatonin receptor type 1B (Homo sapiens, UniProt P49286); experiment: Agonist activity at human MT2R stably expressed in HEK293 cells by FlexStation3 Bench-top MultiMode Microplate Reader; type: functional, cell-based
T4 sequence (P49286 whole entry): T3 sequence (whole entry)

T1 sequence (P22303 whole entry): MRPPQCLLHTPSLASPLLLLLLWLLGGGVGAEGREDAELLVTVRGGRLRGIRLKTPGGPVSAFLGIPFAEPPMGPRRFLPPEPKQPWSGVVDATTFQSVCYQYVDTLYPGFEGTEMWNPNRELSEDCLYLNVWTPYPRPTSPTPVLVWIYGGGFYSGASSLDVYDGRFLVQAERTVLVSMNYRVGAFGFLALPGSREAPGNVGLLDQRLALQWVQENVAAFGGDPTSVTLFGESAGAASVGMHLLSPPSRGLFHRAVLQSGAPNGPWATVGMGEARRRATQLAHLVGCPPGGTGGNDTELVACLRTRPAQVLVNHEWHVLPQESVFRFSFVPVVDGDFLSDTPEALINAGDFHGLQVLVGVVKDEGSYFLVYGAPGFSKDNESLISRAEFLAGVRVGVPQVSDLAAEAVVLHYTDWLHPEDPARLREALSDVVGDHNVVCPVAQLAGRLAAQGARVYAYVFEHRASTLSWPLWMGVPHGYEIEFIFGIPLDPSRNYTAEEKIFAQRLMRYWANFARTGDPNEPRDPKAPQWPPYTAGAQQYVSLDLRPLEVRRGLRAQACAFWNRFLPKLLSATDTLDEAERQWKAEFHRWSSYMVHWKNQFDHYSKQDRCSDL
T2 sequence (P48039 whole entry): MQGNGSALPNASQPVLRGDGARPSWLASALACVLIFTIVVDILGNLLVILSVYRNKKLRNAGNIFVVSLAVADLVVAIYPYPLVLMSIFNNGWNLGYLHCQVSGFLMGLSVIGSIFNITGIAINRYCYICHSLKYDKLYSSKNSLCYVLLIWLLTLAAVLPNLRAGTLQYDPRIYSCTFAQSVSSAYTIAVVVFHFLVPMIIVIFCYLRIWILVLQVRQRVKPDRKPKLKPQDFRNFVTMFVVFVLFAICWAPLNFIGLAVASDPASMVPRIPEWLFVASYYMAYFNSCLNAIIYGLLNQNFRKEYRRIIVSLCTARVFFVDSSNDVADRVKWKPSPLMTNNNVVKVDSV

SMILES: COC(=O)C1=CO[C@@H](C)[C@H]2CN3CC[C@]4(C(=O)Nc5ccccc54)[C@@H]3CC12 (stereo partly specified)
Activity (Mus musculus [1]): 50%
Activity (Mus musculus [2]): 50%
Activity (Mus musculus [3]): 50%
Activity (Mus musculus [4]): 50%
Activity (Mus musculus [5]): 40%

SMILES: CC[C@H]1CN2CCc3c([nH]c4ccccc34)[C@H]2C[C@H]1/C(=C\OC)C(=O)OC
IC50 (Rattus norvegicus): 180 nM

SMILES: C=C[C@@H]1C(C[C@@H]2NCCc3c2[nH]c2ccccc32)C(C(=O)OC)=CO[C@H]1O[C@@H]1O[C@H](CO)[C@@H](O)[C@H](O)[C@H]1O (stereo partly specified)
IC50 [7]: 8.3 µM

SMILES: Oc1cc(O)c2c(c1)O[C@H](c1ccc(O)c(O)c1)[C@@H](O)[C@@H]2c1c(O)cc(O)c2c1O[C@H](c1ccc(O)c(O)c1)[C@@H](O)C2
IC50 [8]: 17.3 µM

SMILES: C/C=C1\CN2CCc3c([nH]c4ccccc34)[C@@H]2C[C@@H]1/C(=C\OC)C(=O)OC
IC50 (Acetylcholinesterase [10]): 63.9 µM

SMILES: C=C[C@H]1[C@H](O[C@@H]2O[C@H](CO)[C@@H](O)[C@H](O)[C@@H]2O[C@@H]2O[C@H](CO[C@@H]3O[C@H](CO)[C@@H](O)[C@H](O)[C@H]3O)[C@@H](O)[C@H](O)[C@H]2O)OC=C2C(=O)N3CCc4c([nH]c5cc(O)ccc45)[C@H]3C[C@H]21
Activity [13]: 79.6%
Activity [14]: 46.3%

SMILES: O=C1CC[C@H](Cc2ccc(O)c(O)c2)O1
IC50 [8]: 27 µM

SMILES: C=C[C@H]1COC(=O)C2=CN3CCc4c([nH]c5cccc(O[C@@H]6O[C@H](CO)[C@@H](O)[C@H](O)[C@H]6O)c45)[C@@H]3C[C@H]21
IC50 (Acetylcholinesterase [15]): 21.1 µM

SMILES: Oc1cc(O)c2c(c1)O[C@H](c1ccc(O)c(O)c1)[C@@H](O)C2 [CIANIDANOL]
EC50 [16]: 25.8 µM
EC50 [17]: 47.3 µM

Results, then the compound that gave them:

IC50 (RAW264.7): 7.01 µM
SMILES: C[C@H]1[C@H](C)CC[C@]2(C(=O)O)CC[C@]3(C(=O)/C=C/c4ccc(O)cc4)C(=CC[C@@H]4[C@@]5(C)CC[C@H](O)C(C)(C)[C@@H]5CC[C@]43C)[C@H]12

IC50 [6]: 4.01 µM
SMILES: CC1(C)CC[C@]2(C(=O)O)CC[C@]3(C)C(=CC[C@@H]4[C@@]5(C)CC[C@H](O)C(C)(C)[C@@H]5CC[C@]43C)[C@@H]2C1 [OLEANOLIC_ACID]

IC50 [8]: 15.5 µM
SMILES: Cc1cc2c(cc1O)OC1(CC1)C(O)C2 (stereo unspecified)

IC50 [6]: 4.01 µM
IC50 [9]: 16 µM
SMILES: C[C@H]1[C@H](C)CC[C@]2(C(=O)O)CC[C@]3(C)C(=CC[C@@H]4[C@@]5(C)CC[C@H](O)C(C)(C)[C@@H]5CC[C@]43C)[C@H]12 [URSOLIC ACID]

IC50 (PC-12 [11]): 25.6 µM
IC50 (PC-12 [12]): 24.5 µM
SMILES: C=C[C@H]1[C@H](O[C@@H]2O[C@H](CO)[C@@H](O)[C@H](O)[C@H]2O)OC=C(C(=O)OC)[C@H]1C[C@@H]1N[C@H](C(=O)O)Cc2c1[nH]c1ccccc21

IC50 (RAW264.7): 1.48 µM
SMILES: C=C1CC[C@]2(C(=O)O)CC[C@]3(C)C(=CC[C@@H]4[C@@]5(C)CC[C@H](O)C(C)(C)[C@@H]5[C@H](O)C[C@]43C)[C@@H]2[C@]1(C)O

IC50 [6]: 4.01 µM
SMILES: CO[C@H]1C=C2[C@@H]3C[C@H](C)CC[C@]3(C(=O)O)CC[C@@]2(C)[C@]2(C)CC[C@H]3C(C)(C)[C@@H](O)CC[C@]3(C)[C@@H]12

IC50 [9]: 49 µM
SMILES: COCC1=C(C)[C@H]2C3=CC[C@@H]4[C@@]5(C)CC[C@H](O)C(C)(C)[C@@H]5C(=O)C[C@@]4(C)[C@]3(C)CC[C@@]2(C(=O)O)CC1

IC50 [6]: 4.01 µM
SMILES: C[C@H]1[C@H](C)CC[C@]2(C(=O)O)CC[C@]3(C)C(=CC[C@@H]4[C@@]5(C)CC[C@H](O)C(C)(C)[C@@H]5[C@H](O)C[C@]43C)[C@H]12
